{"source": "paper PMC9699400", "about": "(Molecules, 2022)", "key": {"PC12 cells [1]": {"test_system": "PC12 cells", "conditions": "10 µM; ref 54 (Liu et al.); cited from earlier work"}, "[2]": {"test_system": "Aβ25–35-induced PC12 cells", "experiment": "GSH level in Aβ25–35-induced PC12 cells", "type": "cell-based", "procedure": "(§1) Each group was provided with six duplicate wells based on different measurement indexes.\n(§2) For cell culture and grouping sample addition, please refer to Section 2.9. After incubation, the culture plate was centrifuged at 200× g for 5 min using a plate centrifuge, and the supernatant was discarded. Next, the cells were collected and broken by ultrasound and centrifuged at 3000 r/min at 4 °C for l0 min, and the supernatant was collected for subsequent assays. The OD was recorded at 532 and 405 nm, respectively, following the instructions mentioned in the manual for the MDA and GSH kits. Intracellular MDA content and GSH levels are expressed as percentages of the control."}, "[3]": {"test_system": "Aβ25–35-induced PC12 cells", "experiment": "Aβ25–35-induced PC12 cell viability (MTT)", "conditions": "then 20 µM Aβ25–35 24 h, model group 51.43 ± 2.61", "procedure": "(§3) PC12 cells were procured from Nanjing KeyGen Biotech Co. Ltd. (Nanjing, China). The cells were maintained in high-glucose DMEM containing 10% fetal bovine serum (FBS) and 1% P-S and incubated under 5% CO2 and 37 °C. PC12 cells in the logarithmic phase were seeded in 96-well (approximately 2 × 10^4/well) or 24-well (approximately 1 × 10^5/well) culture plates, incubated for 24 h, followed by the replacement of the medium.\nas §1\nPC12 cells were inoculated in 96-well plates for 24 h."}, "AChE [4]": {"test_system": "AChE", "conditions": "cited from earlier work"}, "[5]": {"test_system": "Aβ25–35-induced PC12 cells", "experiment": "MDA content in Aβ25–35-induced PC12 cells", "type": "cell-based", "conditions": "quercetin pretreatment (1–40 µM), 20 µM Aβ25–35 24 h; p < 0.01 relative to the model group", "procedure": "as §1, §2"}, "AChE [6]": {"biological_target": "T1, AChE (Electrophorus electricus, UniProt O42275)", "T1 construct": "purchased Sigma-Aldrich Co. (St. Louis, MO, USA)", "T1 sequence (O42275 24-633)": "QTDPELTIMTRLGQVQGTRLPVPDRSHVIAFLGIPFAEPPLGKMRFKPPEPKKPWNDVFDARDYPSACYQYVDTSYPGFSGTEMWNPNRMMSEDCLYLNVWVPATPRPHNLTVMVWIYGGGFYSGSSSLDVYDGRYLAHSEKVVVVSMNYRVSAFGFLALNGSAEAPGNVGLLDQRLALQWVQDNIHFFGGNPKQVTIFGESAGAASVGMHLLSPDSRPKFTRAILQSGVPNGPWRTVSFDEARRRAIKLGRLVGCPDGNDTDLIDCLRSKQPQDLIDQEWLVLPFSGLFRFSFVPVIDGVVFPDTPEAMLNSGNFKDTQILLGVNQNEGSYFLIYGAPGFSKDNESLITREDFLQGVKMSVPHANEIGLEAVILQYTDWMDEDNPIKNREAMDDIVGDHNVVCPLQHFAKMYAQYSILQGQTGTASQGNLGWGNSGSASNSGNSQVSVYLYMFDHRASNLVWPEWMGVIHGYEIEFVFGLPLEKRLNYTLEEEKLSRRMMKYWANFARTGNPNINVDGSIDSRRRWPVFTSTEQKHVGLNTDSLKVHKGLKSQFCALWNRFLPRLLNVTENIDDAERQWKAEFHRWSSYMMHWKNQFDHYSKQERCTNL", "experiment": "Inhibitory type kinetics analysis (reversibility plots, Lineweaver-Burk)", "type": "biochemical", "procedure": "The type of inhibition was determined using the Lineweaver-Burk plot in double reciprocal form."}, "AChE [7]": {"biological_target": "T1, AChE", "experiment": "Fluorescence quenching of AChE", "type": "binding", "procedure": "After each drop, the solution was mixed and left for 3 min to balance the solution. The fluorescence emission spectra at 290 to 450 nm were scanned at an excitation wavelength of 280 nm, with emission and excitation slot widths of 2.5 nm."}, "PC12 cells [8]": {"test_system": "PC12 cells", "experiment": "Quercetin-induced toxicity in PC12 cells (MTT)", "conditions": "1–80 µM, 24 h, n = 6", "procedure": "as §3"}, "AChE [9]": {"biological_target": "T1, AChE", "experiment": "Time-course inactivation kinetics of AChE", "type": "biochemical", "conditions": "for Transition Free Energy Change ΔΔG°: ΔΔG° = −RTlnk", "procedure": "We determined enzyme activities at diverse contents every 3 min for 0–30 min and every 5 min for 30–70 min."}, "AChE [10]": {"biological_target": "T1, AChE", "experiment": "CD spectra, secondary structure of AChE", "description": "The MOS 450 CD spectrometer (Bio-Logic, Claix, France) was used to measure the CD spectra for AChE solution at 190 to 250 nm under ambient temperature. […] The method to analyze the content of specific secondary structures has been reported in our previous study."}, "[11]": {"conditions": "molar ratio quercetin:AChE 10:1"}}, "note": "Values joined by “and” are separate entries in the source; they are usually repeats but may differ in a detail not shown here. Equal entries are not always repeated. Structures can show the parent of a compound that is named as a salt. Where two headings read alike, the source gives them in different places. Marks after values point to notes of the source that are not given here.", "data": [{"smiles": "COc1ccc2c3c1O[C@H]1C[C@@H](O)C=C[C@@]31CCN(C)C2", "note": "[galantamine hydrobromide]", "values": [{"measurement": "protection of cells against Aβ25–35 neurotoxicity", "setting": "PC12 cells [1]", "value": "significantly protected"}]}, {"smiles": "O=c1c(O)c(-c2ccc(O)c(O)c2)oc2cc(O)cc(O)c12", "note": "[quercetin, 3,3′,4′,5,7-pentahydroxyflavone]", "values": [{"measurement": "GSH levels versus model group", "setting": "[2]; 1 µM pretreatment, p > 0.05", "value": "no statistical difference"}, {"measurement": "intracellular GSH levels versus model group", "setting": "[2]; 10, 20, and 40 µM pretreatment, dose-dependent", "value": "increased"}, {"measurement": "cell viability, % of the control group", "setting": "[3]; pretreatment 1 µM", "value": "56.06 ± 3.82", "unit": "%"}, {"measurement": "cell viability, % of the control group", "setting": "[3]; pretreatment 10 µM", "value": "62.14 ± 2.79", "unit": "%"}, {"measurement": "cell viability, % of the control group", "setting": "[3]; pretreatment 20 µM", "value": "68.58 ± 2.12", "unit": "%"}, {"measurement": "cell viability, % of the control group", "setting": "[3]; pretreatment 40 µM", "value": "78.61 ± 3.26", "unit": "%"}, {"measurement": "cell viability, % of the control group", "setting": "[3]; pretreatment 80 µM", "value": "79.48 ± 4.32", "unit": "%"}, {"measurement": "IC50", "setting": "AChE [4]; reported by Jung", "value": "[…]"}, {"measurement": "IC50", "setting": "AChE [4]; reported by Khan", "value": "[…]"}, {"measurement": "release of MDA", "setting": "[5]", "value": "inhibited"}, {"measurement": "type of inhibition", "setting": "AChE [6]; Lineweaver–Burk, c(AChE) = 0.57 nM, quercetin 0–12.0 µM", "value": "mixed inhibitory type"}, {"measurement": "reversibility of inhibition", "setting": "AChE [6]; plots of v versus [AChE], c(ATCI) = 0.25 mM, quercetin 0–8.0 µM", "value": "reversible inhibitor"}, {"measurement": "αKi (binding to AChE–ATCI complex)", "setting": "AChE [6]; secondary plot of Lineweaver–Burk y-intercepts", "value": "19.53 ± 0.65", "unit": "µM"}, {"measurement": "bimolecular quenching rate constant Kq, magnitude order", "setting": "AChE [7]; 25, 31 and 37 °C", "value": "~10^12 L mol^−1 s^−1"}, {"measurement": "Gibbs free energy ∆G°", "setting": "AChE [7]; 25 °C", "value": "-6.475 ± 0.0072", "unit": "kcal/mol"}, {"measurement": "binding site quantity n", "setting": "AChE [7]; 25 °C", "value": "0.75 ± 0.04"}, {"measurement": "quenching constant KSV", "setting": "AChE [7]; 25 °C, pH 7.6", "value": "6.21 ± 0.08 ^a ×10^4 L mol^−1"}, {"measurement": "Gibbs free energy ∆G°", "setting": "AChE [7]; 31 °C", "value": "-6.303 ± 0.012", "unit": "kcal/mol"}, {"measurement": "binding site quantity n", "setting": "AChE [7]; 31 °C", "value": "0.69 ± 0.01"}, {"measurement": "quenching constant KSV", "setting": "AChE [7]; 31 °C", "value": "4.81 ± 0.06 ^b ×10^4 L mol^−1"}, {"measurement": "Gibbs free energy ∆G°", "setting": "AChE [7]; 37 °C", "value": "-6.128 ± 0.017", "unit": "kcal/mol"}, {"measurement": "binding site quantity n", "setting": "AChE [7]; 37 °C", "value": "0.67 ± 0.03"}, {"measurement": "quenching constant KSV", "setting": "AChE [7]; 37 °C", "value": "3.33 ± 0.05 ^c ×10^4 L mol^−1"}, {"measurement": "enthalpy change ∆H°", "setting": "AChE [7]; van't Hoff equation, 25–37 °C", "value": "-15.15 ± 0.017", "unit": "kcal/mol"}, {"measurement": "entropy change ∆S°", "setting": "AChE [7]; van't Hoff equation, 25–37 °C", "value": "-121.8 ± 0.06", "unit": "J mol^−1 K^−1"}, {"measurement": "cytotoxicity (cell viability, MTT)", "setting": "PC12 cells [8]", "value": "no toxic effect"}, {"measurement": "Inactivation Rate Constant k", "setting": "AChE [9]; quercetin 1.5 µM", "value": "4.18 ± 0.06 ×10^−4 s^−1 and 4.18 ± 0.06 ^d ×10^−4 s^−1"}, {"measurement": "Transition Free Energy Change ΔΔG°", "setting": "AChE [9]; quercetin 1.5 µM", "value": "[…]"}, {"measurement": "Inactivation Rate Constant k", "setting": "AChE [9]; quercetin 3.0 µM", "value": "5.73 ± 0.03 ^c ×10^−4 s^−1"}, {"measurement": "Transition Free Energy Change ΔΔG°", "setting": "AChE [9]; quercetin 3.0 µM", "value": "[…]"}, {"measurement": "Inactivation Rate Constant k", "setting": "AChE [9]; quercetin 6.0 µM", "value": "6.04 ± 0.08 ^b ×10^−4 s^−1"}, {"measurement": "Transition Free Energy Change ΔΔG°", "setting": "AChE [9]; quercetin 6.0 µM", "value": "[…]"}, {"measurement": "Inactivation Rate Constant k", "setting": "AChE [9]; quercetin 15.0 µM", "value": "6.41 ± 0.05 ×10^−4 s^−1 and 6.41 ± 0.05 ^a ×10^−4 s^−1"}, {"measurement": "Transition Free Energy Change ΔΔG°", "setting": "AChE [9]; quercetin 15.0 µM", "value": "[…]"}, {"measurement": "β-Sheet of AChE", "setting": "AChE [10]; molar ratio quercetin:AChE 2:1, free AChE 18.62 ± 0.06", "value": "17.31 ± 0.09 ^b %"}, {"measurement": "β-Turn of AChE", "setting": "AChE [10]; molar ratio quercetin:AChE 2:1, free AChE 19.18 ± 0.28", "value": "20.15 ± 0.24 ^c %"}, {"measurement": "Random Coil of AChE", "setting": "AChE [10]; molar ratio quercetin:AChE 2:1, free AChE 28.02 ± 0.65", "value": "25.41 ± 0.34 ^b %"}, {"measurement": "α-Helix of AChE", "setting": "AChE [10]; molar ratio quercetin:AChE 2:1, free AChE 34.35 ± 0.74", "value": "37.13 ± 0.16 ^c %"}, {"measurement": "Random Coil of AChE", "setting": "AChE [10]; molar ratio quercetin:AChE 6:1", "value": "23.71± 0.28 ^c %"}, {"measurement": "β-Sheet of AChE", "setting": "AChE [10]; molar ratio quercetin:AChE 6:1", "value": "16.20 ± 0.17 ^c %"}, {"measurement": "β-Turn of AChE", "setting": "AChE [10]; molar ratio quercetin:AChE 6:1", "value": "21.62 ± 0.13 ^b %"}, {"measurement": "Random Coil of AChE", "setting": "AChE [10]; [11]", "value": "20.19% and 20.19 ± 0.37 ^d %"}, {"measurement": "α-Helix of AChE", "setting": "AChE [10]; [11]", "value": "41.51% and 41.51 ± 0.28 ^a %"}, {"measurement": "β-Sheet of AChE", "setting": "AChE [10]; [11]", "value": "15.16% and 15.16 ± 0.14 ^d %"}, {"measurement": "β-Turn of AChE", "setting": "AChE [10]; [11]", "value": "23.14% and 23.14 ± 0.32 ^a %"}]}, {"smiles": "C[C@@H]1O[C@@H](Oc2c(-c3ccc(O)c(O)c3)oc3cc(O)cc(O)c3c2=O)[C@H](O)[C@H](O)[C@H]1O", "note": "[quercitrin, reference compound]", "values": [{"measurement": "IC50", "setting": "AChE [4]; no reference at the value itself", "value": 94.5, "unit": "µM"}]}, {"smiles": "O=C1c2c(O)cc(O)cc2OC(c2ccc(O)c(O)c2)C1O", "note": "(stereo not drawn) [taxifolin, reference compound]", "values": [{"measurement": "IC50", "setting": "AChE [4]", "value": "54 ± 1.58", "unit": "µM"}]}]}
